In ChEMBL document CHEMBL6114949, “Synthesis and physiological effects of new 4-aminophenol derivatives as paracetamol analogues” (Bioorg Med Chem Lett, 2025):
Calls of active or inactive are those of the source. No cut-off for these calls is given here.

Assays:
Rattus norvegicus [1] = experiment: Antipyretic activity against LPS-induced polyphasic febrile response in rats assessed as suppression of rise in core body temperature at 240 mg/kg, po treated 40 mins prior to LPS addition and measured after 10 mins; type: functional, organism-based; conditions: time 50.0 min
Rattus norvegicus [2] = experiment: Antipyretic activity against LPS-induced polyphasic febrile response in rats assessed as change in core body temperature at 240 mg/kg, po treated 40 mins prior to LPS addition and measured after 160 mins during phase 1 (reference value: 0.85 deg C); type: functional, organism-based; conditions: time 200.0 min
Rattus norvegicus [3] = experiment: Antipyretic activity against LPS-induced polyphasic febrile response in rats assessed as suppression of rise in core body temperature at 240 mg/kg, po treated 40 mins prior to LPS addition and measured after 200 mins; type: functional, organism-based; conditions: time 240.0 min
Rattus norvegicus [4] = experiment: Antipyretic activity against LPS-induced polyphasic febrile response in rats assessed as suppression of rise in core body temperature at 240 mg/kg, po treated 40 mins prior to LPS addition and measured after 160 mins relative to control; type: functional; conditions: time 200 min, 3.333 h
Rattus norvegicus [5] = experiment: Antinociceptive activity in zymosan-induced rat arthritis model assessed as nociceptive response inhibition at 240 mg/kg, ig administered once daily for 7 days and measured 1 hr post-zymosan challenge on day 7 by Randall-Selitto test (reference value: -34.6%); type: functional; conditions: po, 168 h, time 7 day
Rattus norvegicus [6] = experiment: Antinociceptive activity in zymosan-induced rat model of thermal nociceptive hypersensitivity assessed as nociceptive response inhibition at 240 mg/kg, ig administered once daily for 7 days and measured 1 hr post-zymosan challenge on day 7 by hot-plate test (reference value: -42.4%); type: functional; conditions: po, 168 h, time 7 day
[7] = Hepatotoxicity in zymosan-induced rat arthritis model assessed as effect on beam structure of liver at 240 mg/kg, ig administered once daily for 7 days by hematoxylin-eosin staining based histological analysis; type: toxicity, organism-based; conditions: in vivo, po, 168 h, time 7 day
[8] = Hepatotoxicity in zymosan-induced rat arthritis model assessed as effect on general architecture of liver at 240 mg/kg, ig administered once daily for 7 days by hematoxylin-eosin staining based histological analysis; type: toxicity, organism-based; conditions: in vivo, po, 168 h, time 7 day
[9] = Hepatotoxicity in zymosan-induced rat arthritis model assessed as effect on sinusoids elongation at 240 mg/kg, ig administered once daily for 7 days by hematoxylin-eosin staining based histological analysis; type: toxicity, organism-based, Liver; conditions: in vivo, po, 168 h, time 7 day
[10] = Hepatotoxicity in zymosan-induced rat arthritis model assessed as effect on sinusoids arrangement at 240 mg/kg, ig administered once daily for 7 days by hematoxylin-eosin staining based histological analysis; type: toxicity, organism-based, Liver; conditions: in vivo, po, 168 h, time 7 day
[11] = Hepatotoxicity in zymosan-induced rat arthritis model assessed as change in hepatocyte shape at 240 mg/kg, ig administered once daily for 7 days by hematoxylin-eosin staining based histological analysis; type: toxicity, organism-based, Liver; conditions: in vivo, po, 168 h, time 7 day
[12] = Hepatotoxicity in zymosan-induced rat arthritis model assessed as disruption of hepatocyte membrane at 240 mg/kg, ig administered once daily for 7 days by hematoxylin-eosin staining based histological analysis; type: toxicity, organism-based, Liver; conditions: in vivo, po, 168 h, time 7 day
[13] = Hepatotoxicity in zymosan-induced rat arthritis model assessed as change in hepatocyte nucleus size at 240 mg/kg, ig administered once daily for 7 days by hematoxylin-eosin staining based histological analysis; type: toxicity, organism-based, Liver; conditions: in vivo, po, 168 h, time 7 day
[14] = Hepatotoxicity in zymosan-induced rat arthritis model assessed as change in hepatocyte karyoplasm at 240 mg/kg, ig administered once daily for 7 days by hematoxylin-eosin staining based histological analysis; type: toxicity, organism-based, Liver; conditions: in vivo, po, 168 h, time 7 day
[15] = Hepatotoxicity in zymosan-induced rat arthritis model assessed as appearance of vacuoles in hepatocyte cytoplasm at 240 mg/kg, ig administered once daily for 7 days by hematoxylin-eosin staining based histological analysis; type: toxicity, organism-based, Liver; conditions: in vivo, po, 168 h, time 7 day
[16] = Hepatotoxicity in zymosan-induced rat arthritis model assessed as change in hepatocyte cytoplasmic appearance at 240 mg/kg, ig administered once daily for 7 days by hematoxylin-eosin staining based histological analysis; type: toxicity, organism-based, Liver; conditions: in vivo, po, 168 h, time 7 day
[17] = Hepatotoxicity in zymosan-induced rat arthritis model assessed as change in shape of liver central veins at 240 mg/kg, ig administered once daily for 7 days by hematoxylin-eosin staining based histological analysis; type: toxicity, organism-based; conditions: in vivo, po, 168 h, time 7 day
[18] = Hepatotoxicity in zymosan-induced rat arthritis model assessed as change in shape of liver portal tracts at 240 mg/kg, ig administered once daily for 7 days by hematoxylin-eosin staining based histological analysis; type: toxicity, organism-based; conditions: in vivo, po, 168 h, time 7 day

**Q.** For `CCCCCCCCCCCCCCCC(=O)Nc1ccc(OCC(=O)NCCO)cc1`, which Activity (Rattus norvegicus [1]) is on record?
**A.** Active

**Q.** And the ΔTm (Rattus norvegicus [2])?
**A.** 0.28 °C

**Q.** What about the Activity (Rattus norvegicus [3]) of the same compound?
**A.** Active

**Q.** What about the “fold change (FC)” value (Rattus norvegicus [4]) of the same compound?
**A.** 3

**Q.** What about the inhibition in vivo at 240 mg/kg (Rattus norvegicus [5]) of the same compound?
**A.** 23.1%

**Q.** What about the inhibition in vivo at 240 mg/kg (Rattus norvegicus [6]) of the same compound?
**A.** 29.8%

**Q.** What about the Activity [7] of the same compound?
**A.** Non-toxic

**Q.** And the Activity [8]?
**A.** Non-toxic

**Q.** And the Activity [9]?
**A.** Non-toxic

**Q.** What about the Activity [10] of the same compound?
**A.** Non-toxic

**Q.** What about the Activity [11] of the same compound?
**A.** Non-toxic

**Q.** What about the Activity [12] of the same compound?
**A.** Non-toxic

**Q.** What about the Activity [13] of the same compound?
**A.** Non-toxic

**Q.** What about the Activity [14] of the same compound?
**A.** Non-toxic

**Q.** And the Activity [15]?
**A.** Non-toxic

**Q.** What about the Activity [16] of the same compound?
**A.** Non-toxic

**Q.** And the Activity [17]?
**A.** Non-toxic

**Q.** And the Activity [18]?
**A.** Non-toxic
